According to BindingDB's records for doi:10.7270/Q21R6NZ6 (Emory University, 2008):

Molecular target: Mothers against decapentaplegic homolog 3 (Homo sapiens, UniProt P84022)
Assay: Smad3 binding inhibitors, lysate ELISA, dose response, cell lysate, secondary confirmation, chemiluminescent ELISA, HEK293 lysate (AID 1058)

Mothers against decapentaplegic homolog 3, sequence (P84022 whole entry): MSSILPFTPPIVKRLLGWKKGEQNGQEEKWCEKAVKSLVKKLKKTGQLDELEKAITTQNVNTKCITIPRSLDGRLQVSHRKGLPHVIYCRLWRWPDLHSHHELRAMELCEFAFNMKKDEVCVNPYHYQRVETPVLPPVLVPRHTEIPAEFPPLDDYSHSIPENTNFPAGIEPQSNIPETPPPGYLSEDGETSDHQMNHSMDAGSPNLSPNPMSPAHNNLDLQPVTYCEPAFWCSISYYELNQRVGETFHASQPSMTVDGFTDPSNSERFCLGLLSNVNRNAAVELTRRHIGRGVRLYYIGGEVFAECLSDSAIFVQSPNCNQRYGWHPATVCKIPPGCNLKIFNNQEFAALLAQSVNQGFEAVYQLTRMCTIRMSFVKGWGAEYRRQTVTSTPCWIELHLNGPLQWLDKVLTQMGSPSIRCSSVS

COC(=O)c1ccccc1C1c2ccc(O)c(O)c2OC2C(=O)C(=O)C=CC21 (stereo unspecified) [2-(3,4,5-trihydroxy-6-keto-8a,9-dihydroxanthen-9-yl)benzoic acid methyl ester]
IC50: > 50 µM
